# Results: US20190350955A1, “METHODS AND PHARMACEUTICAL COMPOSITIONS FOR THE TREATMENT OF CARDIOMYOPATHIES” (INSERM (Institut National de la Sante et de la Recherche …, priority 2016, published 2019)
# What was measured:
# Lmna^H222P/H222P mice = experiment: Immunoblotting of PARylation, PARP-1, AIF, cleaved-caspase 3 in heart; assay type: in vivo, mouse; conditions: NR treated Lmna H222P/H222P mice
# Procedure: Mice were bred in an accredited animal facility (accreditation number: C-75-13-08). All experiments on mice were approved by the Comité d'éthique en expérimentation animate Charles Darwin No 5. Mice Lmna^H222P/H222P were backcrossed 8 times to 129S2/SvPasOrlRj strain mice to obtain pure genetic background. Male mice used for the studies were maintained under a 12 h light/12 h dark cycle at constant temperature (23° C.) with free access to food and water. Nicotinamide riboside (NR) complementation: Animals at 17 weeks of age were fed for 9 weeks with either a chow diet (A04: Scientific Animal Food & Engineering) or a chow diet complemented with 0.25% of NR (kindly provided by ChromaDex, Inc. California) corresponding to a dose of 400 mg/kg/day for a mouse weighing 25 g eating 4 g of food per day. […]
# Total proteins were extracted in a glass teflon potter from around 5 mg of mouse heart in […] of Cell Lysis Buffer (Cell Signaling) completed with Deacetylation Inhibitors Cocktail (Santa Cruz). Total protein concentration was assessed with BCA™ Protein Assay (Pierce). […] The signal was captured with a CCD camera (G:Box Syngene) and quantified with ImageJ imaging Software (imagej.net).
# SRF^HKO mice = experiment: Myocardial NAD+ levels in SRF HKO mice (NAD recycling assay); assay type: in vivo, mouse
# Excerpt: Transgenic mice. All experiments with animals conformed to the Directive 2010/63/EU of the European Parliament and were approved by the ethics committee Charles Darvin #5 (agreement 00369.01). SRF^HKO mice bear the tamoxifen-inducible α-MHC-MerCrMer transgene and the Siffloxed allele (Sf/Sf) as described previously (Parlakian et al. (2005). Temporally controlled onset of dilated cardiomyopathy through disruption of the SRF gene in adult heart. Journal 112, 2930-2939; Tritsch et al. (2013). An SRF/miR-1 axis regulates NCX1 and Annexin A5 protein levels in the normal and failing heart. Journal 98, 372-380). Transgenic mice have been bred for more than 20 generations in C57BL/6N background. The mice were housed in standard animal facility (CEF. Hôpital Pitié Salpétrière, agreement A-75-13-15, 75013 Paris), under a 12-h dark/light cycle. Tamoxifen (Sigma T5648) was administrated by i.p. injection at a dose of 0.7 mg diluted in 100 μl peanut oil at day (D) 0, D1 and D2. […]
# Tissue frozen powder was resuspended in 75% ethanol, 25% HEPES 10 mM pH 7.1, buffer (20 μl/mg of tissue). […] After adjustment of dilution factors, NADH levels were calculated by substracting the NAD^+ concentration to the non-heated ethanolic extract values: NADH=NADt (non heated)−NAD^+ (heated).
# For both types of extracts (buffered ethanol or HClO4) we added 100 μL of reaction buffer (600 mM ethanol, 0.5 mM 3-(4.5-dimethylthiazol-2-yl)-2.5-diphenyltetrazolium bromide (MTT), 2 mM phenazine ethosulfate (PES), 120 mM Bicine (pH 7.8), yeast alcohol dehydrogenase (SIGMA A3263>300 u/mg.) 0.05 mg/ml. Kinetics of the reaction (OD at 550 nm, every 30 seconds for 40 minutes) was followed on a TECAN Infinite F500 microplate reader. NAD was quantified in duplicates for each sample by comparison to a range of standard NAD^+ concentration using linear regression curve equation method between NAD^+ standard concentrations and the slope of the reaction in OD units/sec. […] Cell extracts were quantified for protein concentration determined by Bradford assay.
smiles,measurement,setting,value
"NC(=O)c1ccc[n+]([C@@H]2O[C@H](CO)[C@@H](O)[C@H]2O)c1 [NR, nicotinamide riboside]","PARP-1, AIF and cleaved-caspase 3 in heart",Lmna^H222P/H222P mice,activation
same,PARylation in heart,Lmna^H222P/H222P mice,increase
same,myocardial NAD,SRF^HKO mice; NR-enriched food (0.22%) from D5 to D50,protected against the drop in NAD
same,myocardial NAD+ levels,SRF^HKO mice; NR-supplemented diet for 2 weeks from D5 to D20,rescued
same,myocardial NAD+ levels,SRF^HKO mice; i.p. daily 1 μmole/g body weight from D8 to D15 after SRF inactivation,preserved
